pEC50: −log10 of the molar value.
System: HEK293
Experiment: Effective dose required to inhibit beta-amyloid formation in a human kidney cell line (HEK 293)
Assay type: functional
Conditions: read-out: ED50 (the source's name)

First: C[C@H](NC(=O)Cc1cc(F)cc(F)c1)C(=O)N[C@@H](CO)c1ccccc1
Second: C[C@H](NC(=O)Cc1cc(F)cc(F)c1)C(=O)N[C@H](CO)c1ccccc1
The pEC50 of the first is lower: less than 5.00 for the first, 6.74 for the second. The second is the more potent here.

First: C[C@H](NC(=O)[C@@H](O)c1cc(F)cc(F)c1)C(=O)N[C@H](CO)CC1CCCCC1
Second: C[C@H](NC(=O)Cc1cc(F)cc(F)c1)C(=O)N[C@H](CO)CC1CCCCC1
The pEC50 of the first is 0.60 log units higher: 6.70 for the first, 6.10 for the second. The first is the more potent here.

`CSCC[C@@H](CO)NC(=O)[C@H](C)NC(=O)Cc1cc(F)cc(F)c1` and `CCCC[C@@H](CO)NC(=O)[C@H](C)NC(=O)Cc1cc(F)cc(F)c1` are within 0.2 log units of each other in pEC50: 6.31 for the first, 6.34 for the second.

Going from `C[C@H](NC(=O)[C@@H](O)c1cc(F)cc(F)c1)C(=O)N[C@H](CO)CCCc1ccccc1` to `C[C@H](NC(=O)[C@@H](O)c1cc(F)cc(F)c1)C(=O)N[C@H](CO)CCc1ccccc1`, the pEC50 falls from 6.89 to 6.57 (0.32 log units).

First: CSCC[C@@H](CO)NC(=O)[C@H](C)NC(=O)[C@@H](O)c1cc(F)cc(F)c1
Second: CCCC[C@H](CO)NC(=O)[C@H](C)NC(=O)[C@@H](O)c1cc(F)cc(F)c1
The pEC50 of the first is 1.41 log units higher: 6.02 for the first, 4.61 for the second.

Compared with `C[C@H](NC(=O)Cc1cc(F)cc(F)c1)C(=O)N[C@@H](c1ccccc1)[C@H](O)c1ccccc1`, `C[C@H](NC(=O)Cc1cc(F)cc(F)c1)C(=O)N[C@H](c1ccccc1)[C@@H](O)c1ccccc1` is lower in pEC50: 5.46 for the first, less than 5.00 for the second. The first is the more potent here.

First: C[C@H](NC(=O)Cc1cc(F)cc(F)c1)C(=O)NCCO
Second: C#CC[C@@H](CO)NC(=O)[C@H](C)NC(=O)Cc1cc(F)cc(F)c1
The pEC50 of the first is lower: less than 5.00 for the first, 5.00 for the second.

First: CCCC[C@@H](CO)NC(=O)[C@H](C)NC(=O)[C@@H](O)c1cc(F)cc(F)c1
Second: C#CC[C@@H](CO)NC(=O)[C@H](C)NC(=O)[C@@H](O)c1cc(F)cc(F)c1
The pEC50 of the first is 0.58 log units higher: 6.22 for the first, 5.64 for the second.

First: CCCC[C@H](NC(=O)[C@H](C)NC(=O)Cc1cc(F)cc(F)c1)C(=O)OC
Second: CCCC[C@H](NC(=O)[C@@H](C)NC(=O)Cc1cc(F)cc(F)c1)C(=O)OC
The pEC50 of the first is 2.79 log units higher: 7.82 for the first, 5.03 for the second.

Going from `C[C@H](NC(=O)Cc1cc(F)cc(F)c1)C(=O)N[C@H]1c2ccccc2C[C@H]1O` to `C[C@H](NC(=O)Cc1cc(F)cc(F)c1)C(=O)NC1c2ccccc2C[C@@H]1O` (single isomer, unassigned), the pEC50 falls from 6.20 to less than 5.00. The first is the more potent here.

`C[C@H](NC(=O)Cc1cc(F)cc(F)c1)C(=O)N(C)[C@H](C)[C@H](O)c1ccccc1` and `C[C@H](NC(=O)Cc1cc(F)cc(F)c1)C(=O)N(C)[C@@H](C)[C@@H](O)c1ccccc1` cannot be ordered by pEC50: less than 5.00 for the first, less than 5.00 for the second.

`C[C@H](NC(=O)Cc1cc(F)cc(F)c1)C(=O)N[C@H](C)[C@@H](O)c1ccccc1` and `C[C@H](NC(=O)Cc1cc(F)cc(F)c1)C(=O)N[C@@H](C)[C@H](O)c1ccccc1` cannot be ordered by pEC50: less than 5.00 for the first, less than 5.00 for the second.

Compared with `COC(=O)C[C@@H](O)[C@H](Cc1ccccc1)NC(=O)[C@H](C)NC(=O)Cc1cc(F)cc(F)c1`, `C[C@H](NC(=O)Cc1cc(F)cc(F)c1)C(=O)N[C@H](CO)Cc1ccccc1` is higher in pEC50: less than 5.00 for the first, 5.57 for the second. The second is the more potent here.

Compared with `CCCC[C@H](CO)NC(=O)[C@H](C)NC(=O)Cc1cc(F)cc(F)c1`, `C[C@H](NC(=O)Cc1cc(F)cc(F)c1)C(=O)N[C@H](CO)CCCc1ccccc1` is higher in pEC50: less than 4.54 for the first, 6.06 for the second.
